Reference: ChEMBL document CHEMBL1201862, “PubChem BioAssay data set” (2004)
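Dose response: 5 concentrations. Exposure: 48 h. Format: 96-well plates. Endpoint: linear interpolation; highest concentration if not reached. The concentration for 50% growth inhibition is given as GI50.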 Activity calls are given as the source filed them. No stated cut-off is given here; in the data, active = GI50 up to about 1.1 µM and inactive = higher.

Tests used:
Assay in all cases: inhibition of tumour cell growth, NCI panel, 48 h
OVCAR-3 = system: OVCAR-3
Malme-3M = system: Malme-3M
MCF7 = system: MCF7
K562 = system: K562
T47D = system: T47D
U-251 = system: U-251
HL-60 = system: HL-60
COLO 205 = system: COLO 205
SK-MEL-5 = system: SK-MEL-5
MDA-MB-435 = system: MDA-MB-435
786-0 = system: 786-0
TK-10 = system: TK-10
DU-145 = system: DU-145
SW-620 = system: SW-620
HT-29 = system: HT-29
PC-3 = system: PC-3
MDA-MB-231 = system: MDA-MB-231
MOLT-4 = system: MOLT-4
UACC-257 = system: UACC-257
HOP-62 = system: HOP-62

Structure (SMILES)	GI50 (OVCAR-3)	GI50 (Malme-3M)	GI50 (MCF7)	GI50 (K562)	GI50 (T47D)	GI50 (U-251)	GI50 (HL-60)	GI50 (COLO 205)	GI50 (SK-MEL-5)	GI50 (MDA-MB-435)	GI50 (786-0)	GI50 (TK-10)	GI50 (DU-145)	GI50 (SW-620)	GI50 (HT-29)	GI50 (PC-3)	GI50 (MDA-MB-231)	GI50 (MOLT-4)	GI50 (UACC-257)	GI50 (HOP-62)
O=C1CC(NC(=O)C(F)(F)F)c2c(Br)sc(N3CCNCC3)c21 (stereo unspecified)	> 100 µM (inactive)	> 100 µM (inactive)	> 100 µM (inactive)	> 100 µM (inactive)	> 100 µM (inactive)	> 100 µM (inactive)	> 100 µM (inactive)	> 100 µM (inactive)	> 100 µM (inactive)	> 100 µM (inactive)	> 100 µM (inactive)	> 100 µM (inactive)	> 100 µM (inactive)	> 100 µM (inactive)	85.7 µM (inactive)	> 100 µM (inactive)	> 100 µM (inactive)	> 100 µM (inactive)	> 100 µM (inactive)	
CC(C)CC(=O)NC(NC(C)C)(C(F)(F)F)C(F)(F)F		> 100 µM (inactive)	> 100 µM (inactive)	> 100 µM (inactive)	> 100 µM (inactive)	> 100 µM (inactive)	60.5 µM (inactive)	> 100 µM (inactive)	> 100 µM (inactive)	> 100 µM (inactive)	> 100 µM (inactive)	> 100 µM (inactive)	> 100 µM (inactive)	> 100 µM (inactive)	> 100 µM (inactive)	> 100 µM (inactive)	> 100 µM (inactive)	> 100 µM (inactive)	> 100 µM (inactive)	> 100 µM (inactive)
O=C(Nc1ccc(Cl)cc1)NS(=O)(=O)c1coc2ccccc2c1=O	> 10 µM (inactive)	> 10 µM (inactive)	> 10 µM (inactive)		> 10 µM (inactive)	> 10 µM (inactive)	> 10 µM (inactive)	> 10 µM (inactive)	> 10 µM (inactive)	> 10 µM (inactive)	> 10 µM (inactive)	> 10 µM (inactive)	> 10 µM (inactive)	> 10 µM (inactive)	> 10 µM (inactive)	> 10 µM (inactive)	> 10 µM (inactive)	> 10 µM (inactive)	> 10 µM (inactive)	> 10 µM (inactive)
CCN(CC)CCC1CCCCN1CC(=O)N1c2cc(Cl)ccc2NC(=O)CC1C (stereo unspecified)	> 100 µM (inactive)	> 100 µM (inactive)	> 100 µM (inactive)	> 100 µM (inactive)	> 100 µM (inactive)	> 100 µM (inactive)	> 100 µM (inactive)	> 100 µM (inactive)	> 100 µM (inactive)	> 100 µM (inactive)	> 100 µM (inactive)	> 100 µM (inactive)	> 100 µM (inactive)		> 100 µM (inactive)	> 100 µM (inactive)	> 100 µM (inactive)	> 100 µM (inactive)		> 100 µM (inactive)
O=C(CCCCCNC(=O)c1ccc(Cl)cc1)NO	2.55 µM (inactive)	2.61 µM (inactive)	6.21 µM (inactive)	2.84 µM (inactive)	1.41 µM (inactive)	5.04 µM (inactive)	3.77 µM (inactive)	2.99 µM (inactive)	3.24 µM (inactive)	3.11 µM (inactive)	7.03 µM (inactive)	3.49 µM (inactive)	4.17 µM (inactive)	2.82 µM (inactive)	2.98 µM (inactive)	2.86 µM (inactive)	3.61 µM (inactive)	1.88 µM (inactive)	2.72 µM (inactive)	
N#Cc1cccc2c1Sc1ccccc1N2	57 µM (inactive)	41.6 µM (inactive)	30.2 µM (inactive)	17.4 µM (inactive)	19.2 µM (inactive)	20 µM (inactive)	27.3 µM (inactive)	19.8 µM (inactive)	0.553 µM (active)	27.3 µM (inactive)	30.2 µM (inactive)	17.1 µM (inactive)	40.6 µM (inactive)	20.7 µM (inactive)	32.7 µM (inactive)	14.1 µM (inactive)	24.5 µM (inactive)	11.5 µM (inactive)	35.1 µM (inactive)	
COC(=O)C(NC(=O)C12CCC(C)(C(=O)O1)C2(C)C)c1cc(C(C)(C)C)c(O)c(C(C)(C)C)c1 (stereo unspecified)	> 100 µM (inactive)	> 100 µM (inactive)	47.5 µM (inactive)	64 µM (inactive)	81.7 µM (inactive)	73.1 µM (inactive)	4.95 µM (inactive)	49.4 µM (inactive)	21.7 µM (inactive)	> 100 µM (inactive)	> 100 µM (inactive)	57.7 µM (inactive)	> 100 µM (inactive)	77.3 µM (inactive)	72.9 µM (inactive)	67 µM (inactive)	> 100 µM (inactive)	42.2 µM (inactive)		> 100 µM (inactive)
O=C(O)[C@@H]1CSCN1C(=O)[C@@H]1CCC(=S)N1	> 100 µM (inactive)	> 100 µM (inactive)	> 100 µM (inactive)	> 100 µM (inactive)	> 100 µM (inactive)		> 100 µM (inactive)		> 100 µM (inactive)	> 100 µM (inactive)	> 100 µM (inactive)	> 100 µM (inactive)	> 100 µM (inactive)	> 100 µM (inactive)	> 100 µM (inactive)	> 100 µM (inactive)	> 100 µM (inactive)	> 100 µM (inactive)	> 100 µM (inactive)	> 100 µM (inactive)
O=C(O)CCC1(C(=O)O)CCC(=O)c2ccccc21 (stereo unspecified)	> 100 µM (inactive)	> 100 µM (inactive)	> 100 µM (inactive)	> 100 µM (inactive)	> 100 µM (inactive)	> 100 µM (inactive)	> 100 µM (inactive)	> 100 µM (inactive)	> 100 µM (inactive)	> 100 µM (inactive)	> 100 µM (inactive)	> 100 µM (inactive)	> 100 µM (inactive)	> 100 µM (inactive)	> 100 µM (inactive)	> 100 µM (inactive)	> 100 µM (inactive)		> 100 µM (inactive)	> 100 µM (inactive)
CS/C(=N/S(=O)(=O)c1ccc(Cl)cc1)NCCCN/C(=N\S(=O)(=O)c1ccc(Cl)cc1)SC	6.93 µM (inactive)	15.7 µM (inactive)	8.28 µM (inactive)	6.11 µM (inactive)	7.35 µM (inactive)	29.4 µM (inactive)	8.38 µM (inactive)	21.5 µM (inactive)		9.42 µM (inactive)	25.2 µM (inactive)	14.5 µM (inactive)	23.6 µM (inactive)	45.6 µM (inactive)	22.8 µM (inactive)	4.62 µM (inactive)	6.21 µM (inactive)	4.8 µM (inactive)	6.15 µM (inactive)	24.8 µM (inactive)
O=C1C=C/C(=N\N=C(c2ccccc2)c2ccccc2)O1		> 10 µM (inactive)	> 10 µM (inactive)	> 10 µM (inactive)	> 10 µM (inactive)		> 10 µM (inactive)	> 10 µM (inactive)	> 10 µM (inactive)	> 10 µM (inactive)	> 10 µM (inactive)	> 10 µM (inactive)	> 10 µM (inactive)	> 10 µM (inactive)	> 10 µM (inactive)	> 10 µM (inactive)	> 10 µM (inactive)	> 10 µM (inactive)	> 10 µM (inactive)	> 10 µM (inactive)
